Source: patent US10058587B2, “Peptide composition for cancer treatment by inhibiting TRPV6 calcium channel activity” (priority 2008, dated 2018)
Read-outs that look alike come from different tables or passages of the source. Bridges are numbered along the chain shown (N, C = ends). Where no end group is shown, it is not given here.

Columns and labels:
mealworm larvae [1] = test: Mealworm larva paralytic bioassay; type: in vivo; settings: for larvae paralyzed: 20 nmole/100 mg mass
Source text: To show this, the mealworm larva paralytic bioassay reported previously (U.S. Pat. No. 7,119,168) was used. Animals from a mealworm colony were arbitrarily selected and placed in groups (treatment and control). The animals were weighed to allow calculation of equivalent doses. The treatment was with either SorC13 or SorC27 dissolved in buffered insect Ringer's solution. The control was injection was an equivalent volume of insect Ringer's (NaCl; 10.40 g; KCl, 0.32 g; CaCl2, 0.48 g; NaHCO3, 0.32 g dissolved in 1 L of Millipore sterile water, pH 7.4). Peptide formulations were: SorC27 solutions, prepared at 1.0 mg/100 uL insect Ringer's (10 ug/uL, […], MW=2957); and SorC13, prepared at 0.5 mg/100 uL (5 ug/uL, […], MW=1566). The doses were 50 ug SorC27 per 100 mg of animal mass and 25 ug SorC13 per 100 mg of animal mass. Peptide solutions and control saline were injected dorsally at the fourth segment from the head, just under the integumen. Animals were gently ‘tail tweaked’ with forceps to trigger the escape reflex reaction and scored on time-to-effect, duration of effect and intensity of effect.

pI = type: physicochemical; settings: measured
[2] = Storage stability of solid and aqueous solution; type: physicochemical
Protocol: Additionally, the peptides have greater shelf-life stability and solution stability due to the presence of fewer sensitive disulfide bonds (soricidin has 3 disulfide bonds). The peptides of the invention optionally have no disulfide bonds. An absence of disulfide bonds provides a very long shelflife during storage under minimal refrigeration or at room temperature as a solid. Additionally when the peptides of the invention with no disulfide bonds are dissolved in water, cleavage of disulfide bonds cannot occur. […] The formation of inter-peptide S—S bonds also results in precipitation of soricidin. The peptides of the invention, such as SorC13 and SorC27, are typically stable in aqueous solution at 8° C. for at least 3 weeks with no change in purity as measured by HPLC.
“Very stable” in the above table means that there was no observable degradation of the solid peptides over 6 months. As a solution in sterile water, the peptides are typically stable for at least 3 weeks at 8° C. and at −20° C., are expected to be stable more than 1 year.

[3] = Degradation rate in rat plasma (HPLC); type: in vitro ADME
Protocol: (§1) Rat plasma was obtained from blood taken from sacrificed rats (Sprague-Dawley) and placed into heparinized glass vials to prevent clotting. Whole blood was centrifuged at 8000×g for 5 minutes to spin down the cells leaving the plasma as supernatant. Human whole blood samples from healthy humans were taken in lithium-heparinized vacuum tubes. The samples were placed into 2.0 mL microcentrifuge tubes and centrifuged at 8000×g for 5 min. The plasma was carefully separated from red blood cells and used immediately.
(§2) Determination of degradation rate of the C-peptides was done by measuring, with the HPLC protocol, the amount of either SorC13 or SorC27 in dosed plasma samples, after time. Sample tubes (500 uL) containing 2 uL of 2 mM Pefabloc were previously prepared for sample delivery SorC13 (1.0 mg) or SorC27 (2.0 mg) were dissolved in 1.0 mL of fresh plasma (37° C.) and placed in an incubating water bath at 37° C. A sample (100 uL) was taken immediately and quenched in sample tubes containing 2 uL of 2 mM Pefabloc, mixed vigorously and immediately frozen at −80° C. This initial sample represented time zero for the run. At successive time intervals of 5 minutes, 100 uL samples were withdrawn, quenched in Pefabloc, mixed, and frozen at −80° C. until analysis.
(§3) The rat plasma degradation rate was determined for the plasma from three different rats, while the rate of degradation in human plasma used six separate plasma samples. The data used were the means (±SEM) and were fitted to a simple one-phase exponential decay model to determine the half-life of the two peptides. This also allowed the calculation of a static degradation rate. FIG. 11 is illustrative of the rate at which SorC27 was degraded in human plasma.

[4] = Degradation rate in human plasma (HPLC); type: in vitro ADME
Protocol: as §1, §2, §3

mealworm larvae [5] = test: Mealworm larva paralytic bioassay; type: in vivo
human TRPV6b = target: T1, human TRPV6b (Homo sapiens, UniProt Q9H1D0); test: Whole-cell patch clamp of calcium store operated current (ISOC) through TRPV6 in transfected LnCaP cells; type: cell-based
T1 construct: expressed in transfected cells; host or cells: LnCaP (ATCC CRL-1740), human lymph node prostate cancer cells
T1 sequence (Q9H1D0 41-765 limits assumed): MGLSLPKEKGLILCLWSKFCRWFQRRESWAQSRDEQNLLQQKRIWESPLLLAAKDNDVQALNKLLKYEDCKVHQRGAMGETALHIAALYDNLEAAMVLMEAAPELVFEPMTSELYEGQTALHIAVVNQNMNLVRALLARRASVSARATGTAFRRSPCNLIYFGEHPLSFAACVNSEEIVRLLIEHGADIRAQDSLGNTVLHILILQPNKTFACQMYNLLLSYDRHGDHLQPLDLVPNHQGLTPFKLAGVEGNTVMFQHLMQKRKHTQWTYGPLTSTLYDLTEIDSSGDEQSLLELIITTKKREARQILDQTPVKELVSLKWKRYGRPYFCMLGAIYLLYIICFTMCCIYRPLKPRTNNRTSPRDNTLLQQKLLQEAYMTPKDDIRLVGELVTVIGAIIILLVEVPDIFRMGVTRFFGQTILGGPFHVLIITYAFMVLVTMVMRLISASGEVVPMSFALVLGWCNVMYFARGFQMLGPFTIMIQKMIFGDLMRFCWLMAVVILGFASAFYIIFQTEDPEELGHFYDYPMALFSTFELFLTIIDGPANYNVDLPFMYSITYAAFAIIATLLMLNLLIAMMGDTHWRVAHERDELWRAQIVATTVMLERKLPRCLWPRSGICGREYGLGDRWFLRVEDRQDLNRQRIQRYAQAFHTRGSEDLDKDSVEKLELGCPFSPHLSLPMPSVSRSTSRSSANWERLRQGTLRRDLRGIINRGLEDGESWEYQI
Protocol: An expression vector (pCAGS-IRES-hTRPV6b) (Bodding et al. 2003) containing the nucleotide code for human TRPV6b was transfected into and expressed by human lymph node prostate cancer (LnCaP, ATCC CRL-1740). Patch clamping with whole-cell current acquisition was used to measure the calcium current through this channel. Cells were treated and calcium store operated current (ISOC) was measured with either SorC13 (n=90) or SorC27 (n=30) in a closed-circuit perfusion for 3 min at each of cumulative concentrations of 0 (baseline), 100 nM, 500 nM 1 uM, 30 uM and 100 uM. Washout perfusion was done at 2 mL/min for 3 min. […] Further, both C-peptides are very strong inhibitors of calcium current through the TRPV6 channel with inhibition constants in the 100 nM range.

[6] = Physiological effects after i.v. injection into CD1 mice (blood pressure, heart rate, neurological/behavioral); type: in vivo
Protocol: (§4) After in vivo i.v. injection into CD1 mice, SorC13 caused a small spike (approximately 25%) in blood pressure in the first 15 min which disappeared by 1 hour.

[7] = Single dose acute intravenous bolus toxicity study with 5-day observation; type: in vivo, CD-1 mice
Protocol: A single dose acute intravenous bolus injection toxicity study followed by a 5-day observation period in CD-1 mice was performed as described below. Three doses of each of SorC13 and SorC27 were used (10, 100 and 500 mg/Kg). Daily cage-side exams for 5 days with hourly exams for the first 4 hrs post injection. As part of the analysis the following assessments were made: body weights prior to dosing and at termination; all animals were necropsied (including preparation of bone marrow smears); organ weights were taken of all animals.
as §4

[8] = Repeated dose toxicity study; type: in vivo, NOD/SCID mice; settings: 400 mg/kg, daily i.p. injection for 12 days
Protocol: In order to investigate repeated dose toxicity, SorC27 at 400 mg/kg formulated in saline was injected (i.p.) into NOD/SCID mice every day for 12 days. The animals were observed cage-side each day and examined at the end of the experimental period.

[9] = Tissue distribution of Cy5.5-labeled peptides by optical imaging; type: in vivo, CD1 mice; settings: Cy5.5-tagged peptide
Source text: SorC13 and SorC27 were labeled with the near-infrared probe, Cy5.5. SorC13 was labeled at lysine-1 and lysine-8 with the infrared fluorescent probe cy5.5 through reaction with Cy5.5 NHS ester-activated process. SorC27 was labeled at the single cysteine thiol with Cy5.5 maleamide-activated reaction. The labeled peptides were purified with a combination of size exclusion chromatography and HPLC. The label, Cy5.5, fluoresces in the infra-red region after excitation with a scanning laser. The low energy laser is able to penetrate the animal to about 1 cm and, thus, by scanning prone and supine positions, the presence of the tagged peptides can be quantified in three dimensions.
Cy5.5-labeled peptides were intravenously injected into CD1 mice (4 for each compound) at 100 ug per animal in 100 uL, and animals were imaged live using an optical imaging system, Optix eXplorer (GE Healthcare Systems) at different time points (30 min, 90 min, 4 h). […] The bio-distribution of the labeled peptides in different organs and tissues were visualized and relatively quantified by optical imaging analysis. This protocol allows for visualization of the location of the labeled peptides and how the location changes over time. […] Nodes that accumulated the labeled peptides are indicated by line 1 (superfacial cervical nodes), line 4 (axillary nodes), line 5 (brachial nodes), line 8 (mesenteric nodes) and line 9 (inguinal nodes). FIGS. 8, 9 and 10 show the amounts of labeled peptides in various organs ex vivo.

[10] = Clearance route in iv mice; settings: i.v.
[11] = single i.v. 10, 100 and 500 mg/kg

DCSQDCAACSILARPAELNTETCILECEGKLSSNDTEGGLCKEFLHPSKVDLPR (disulfide 2-23, 6-27, 9-41) [Sor54, soricidin, reference compound]
larvae paralyzed (mealworm larvae [1]; time 0 min): 4/4
larvae paralyzed (mealworm larvae [1]; time 2 min): 4/4
larvae paralyzed (mealworm larvae [1]; time 30 min): 4/4
paralysis in the mealworm larva model (mealworm larvae [1]; molar equivalent doses (20 nanomole/100 mg larva)): profoundly paralytic
pI (pI): 4.3 (measured)
Stability in aqueous solution @ −20° C. [2]: stable
Stability solid @ Room Temp. [2]: unstable
Stability solid @ −20° C. [2]: stable
binding to plasma proteins ([3]; rat plasma): binds to
half-life ([3]; rat plasma): > 1800 min
binding to plasma proteins ([4]; human plasma): binds to
half-life ([4]; human plasma): > 1800 min
Physiol. effects in vivo (mealworm larvae); 5 mg/kg (mealworm larvae [5]): Paralytic
solubility (Solubility (aqueous)): < 20 mg/mL

KEFLHPSKVDLPR [SorC13, KEFLHPSKVDLPR]
IC50 (human TRPV6b): 100 nM
Kd (human TRPV6b): 100 nM
Stability in aqueous solution @ −20° C. [2]: Very stable
Stability solid @ Room Temp. [2]: Very stable
Stability solid @ −20° C. [2]: Very stable
neurological/behavioral changes ([6]; i.v., over 72 hours): no neurological/behavioral changes
spike in blood pressure in the first 15 min ([6]; i.v., disappeared by 1 hour): approximately 25%
BP spike @ 15 min ([6]; mice @ 5 mg/kg, stabilizes by 1 hr): 15% BP spike, @
half-life ([3]; Sprague-Dawley, rat, plasma, 37° C.): 58 min
binding to plasma proteins ([3]; rat plasma): doesn't
binding to plasma proteins ([4]; human plasma): doesn't
half-life ([4]; human, plasma, 37° C.): 56.6 min
Maximum Tolerated Dose in CD-1 mice by single i.v. dose ([7]; 10, 100 and 500 mg/kg doses): No toxic effects
adverse events over 5-day post-injection observation period [7, 11]: no adverse events
necropsy changes in major organ systems [7, 11]: no significant changes in all major organ systems
Repeated dose in NOD/SCID mice: body weight [8]: No loss of body
Repeated dose in NOD/SCID mice: toxic effects [8]: controls, no toxic
detectable in tissues after perfusion ([9]; 24 hours): still detectable
tissue localization ([9]; i.v. 100 ug): localize predominantly in lymph nodes, lung, liver and kidney
solubility (Solubility (aqueous); aqueous): > 200 mg/mL
Clearance route in iv mice @ 5 mg/kg [10]: Rapid via kidney.
